Measurements reported in patent US9018213B2, “Alicyclic[c] benzopyrone derivatives and uses thereof” (Huazhong University of Science & Technology, priority 2011, dated 2015).
Where two headings read alike, the source gives them in different places.

Legend:
5HT1A receptor = 5HT1A receptor (Rattus norvegicus (Rat), UniProt P19327); test: 5HT1A receptor binding assay (3H-8-OH-DPAT); conditions: test compound final concentration 10^-5 M
Experimental: Preparation of 5HT1A Membrane
Incubation at 37° C. was conducted for 10 min, the weight of the tubes were adjusted using a balance after incubation. […] Centrifugation was conducted and repeated 3 times.
Materials for the Receptor Binding Assay

5HT2A receptor = 5HT2A receptor (Rattus norvegicus (Rat), UniProt P14842); test: 5HT2A receptor binding assay ([3H]-Ketanserin); conditions: read-out: 5HT2A inhibition %
D2 receptor = D2 receptor (Rattus norvegicus (Rat), UniProt P61169); test: D2 receptor inhibition binding assay (3H-Spiperone); conditions: read-out: D2 inhibition %
Experimental: Rats were sacrificed by cervical dislocation on ice. Cerebral cortex was rapidly taken, and 2 cerebral cortexes were combined into a centrifuge tube, to which 3 ml of buffer (0.05 M Tris-HCl buffer, containing NaCl 120 mM, KCl 5 mM, MgCl2 1 mM, CaCl2 1 mM) was added, homogenization was conducted for 3-4 s at level 4 for four times, and then 5 ml of buffer was then added. The weight of the homogenized tubes were adjusted using a balance, and centrifugation was conducted at 12000 r, 4° C. for 20 min. The supernatant was discarded, and 3 ml of B solution was added. Vortex mixer was used for blending, and then 5 ml of B solution was added. Centrifugation was conducted and repeated 3 times. After the centrifugations, the supernatant was discarded, and the pellets were stored at −80° C. for future use.
Beckman LS-6500 Multi-function Liquid Scintillation Counter was used.
(1) The prepared membrane was first applied with appropriate amount of homogenized liquid, and homogenizer was used for evenly dispersing. 15 tubes were mixed into a 100 ml container, and appropriate amount of homogenized liquid was added to give 50 ml of membrane suspension, which was reserved for future use.
(2) 100 μL of membrane preparation and 100 μL of buffer were added into each reaction tube.
(3) 100 μL of homogenized liquid was added into the total binding tube (TB), 100 μL of Butaclamol (final concentration 10^−5 M) was added into the non-specific binding tube (NB), and 100 μL of the test compound (final concentration 10^−5 M) was added into the specific binding tube (SB) for each compound.
(5) Each of the reaction tubes was incubated at 37° C. for 20 min. After the reaction was completed, the bound ligands were rapidly filtered under reduced pressure, and the ice-chilled assay buffer was used for adequate washing. The filter was taken out and put into a 3 ml scintillation vial, and 2 ml of toluene scintillation solution was added and blended.
(6) The scintillation vials were put into Liquid Scintillation Counter for counting. Inhibitory rate (I %)=(Total binding tube cpm−compound cpm)/(Total binding tube cpm−non-specific binding tube cpm)×100%
Each assay for the compounds was conducted in duplicate.

mice of Kunming breed = test: MK-801 induced high activity; type: in vivo; conditions: po, mice; for ED50: Mus musculus
Experimental: Healthy mice of Kunming breed (with half male and half female, (20±2) g) were provided by Qinglongshan Animal Cultivation Center, Nanjing.
Ascorbic acid was provided by Sinopharm Chemical Reagent Co. Ltd.
Tween 80, with the concentration of 10%.
Subsequently, the spontaneous activities of the mice of each group in 90 min were measured.

in vivo [1] = conditions: both sexes, mouse, in vivo, po
Experimental: Limit Test of Sequential Assay
KM mice (half male and half female) were randomly divided into several groups (with 2-5 mice in each group), which were respectively the 2000 mg/kg groups for each compound, and the solvent group. 0.2 ml/10 g were administered intragastrically. The death of the animals in 3 days were observed. (In the case 3 or more animals survived in 3 days without notable abnormity in their life states, the observation was continued until the assay was completed in 7 days. In the case 3 or more animals died in 3 days, the median lethal dose method was used to determine the LD50).
Pre-Assay for the Median Lethal Dose Method
0.2 ml/10 g were administered intragastrically, and the death of the animals in 1-3 days were observed.

in vivo [2] = conditions: both, Kunming (KM), mouse, po
Experimental: Healthy mice of Kunming breed (with half male and half female, (22±2) g) were provided by Qinglongshan Animal Cultivation Center, Nanjing.
The durations for the mice to maintain the posture with the two forepaws on the bars were recorded, and 30 s of spasticity without moving was considered as the positive response. In the case the forepaws of the mice were not put down persistently, the observation was terminated at 60 s. The numbers of animals with positive response in each of the compound dosage groups were counted.

KM mice = test: Apomorphine induced clambering assay of mice; type: in vivo; conditions: for ED50: Mus musculus, read-out: apomorphine induced clambering ED50; for Scoring (value), apomorphine induced clambering: x ± s, n = 10
Experimental: Apomorphine Induced Clambering Assay of Mice
Healthy KM mice (male, with body weight of 18-22 g) were provided by Qinglongshan Animal Cultivation Center, Nanjing.
Apomorphine provided by Sigma Company was dissolved in 0.9% NaCl (containing 0.1% vitamin C) before use, and was freshly formulated before use.
Vitamin C, F20061113, was provided by Sinopharm Chemical Reagent Co. Ltd.
Sodium chloride injection, H32026305, was provided by Xuzhou No. 5 Pharmaceutical Factory Co. Ltd.
Instruments: self-made clambering cage, chronograph.
Procedures: apomorphine induced clambering assay of mice
After 5 min of adaptation, the behaviors of the mice at 10-11, 20-21, and 30-31 min after the injection of apomorphine were observed and scored. Scoring criteria: 4 paws on the floor was scored as 0; 2 forepaws on the cage was scored as 1; and 4 paws on the cage was scored as 2.

Sequence of 5HT1A receptor (P19327 whole entry): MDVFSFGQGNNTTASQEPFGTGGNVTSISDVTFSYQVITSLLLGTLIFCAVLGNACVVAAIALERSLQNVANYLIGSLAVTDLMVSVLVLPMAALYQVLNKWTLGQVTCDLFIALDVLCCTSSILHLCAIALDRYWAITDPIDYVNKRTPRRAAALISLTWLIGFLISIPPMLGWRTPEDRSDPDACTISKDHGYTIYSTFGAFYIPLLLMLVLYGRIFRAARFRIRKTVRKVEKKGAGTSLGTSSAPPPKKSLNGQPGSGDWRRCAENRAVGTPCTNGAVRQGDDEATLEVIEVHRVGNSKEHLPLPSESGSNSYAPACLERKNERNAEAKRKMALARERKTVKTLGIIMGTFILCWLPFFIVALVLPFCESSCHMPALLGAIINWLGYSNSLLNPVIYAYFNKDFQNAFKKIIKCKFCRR
Sequence of 5HT2A receptor (P14842 whole entry): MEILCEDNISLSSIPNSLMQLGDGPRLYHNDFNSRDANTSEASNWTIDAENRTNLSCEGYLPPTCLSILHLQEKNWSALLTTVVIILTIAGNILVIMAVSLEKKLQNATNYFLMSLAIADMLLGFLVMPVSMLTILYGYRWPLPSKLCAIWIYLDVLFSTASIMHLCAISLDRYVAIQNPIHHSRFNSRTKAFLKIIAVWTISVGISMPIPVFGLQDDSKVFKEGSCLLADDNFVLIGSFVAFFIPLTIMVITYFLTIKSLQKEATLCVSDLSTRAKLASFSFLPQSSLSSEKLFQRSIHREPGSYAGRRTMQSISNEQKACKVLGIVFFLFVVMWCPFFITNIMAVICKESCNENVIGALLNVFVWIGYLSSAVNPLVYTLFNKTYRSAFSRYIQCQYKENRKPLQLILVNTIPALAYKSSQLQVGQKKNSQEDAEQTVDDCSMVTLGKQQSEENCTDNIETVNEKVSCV
Sequence of D2 receptor (P61169 whole entry): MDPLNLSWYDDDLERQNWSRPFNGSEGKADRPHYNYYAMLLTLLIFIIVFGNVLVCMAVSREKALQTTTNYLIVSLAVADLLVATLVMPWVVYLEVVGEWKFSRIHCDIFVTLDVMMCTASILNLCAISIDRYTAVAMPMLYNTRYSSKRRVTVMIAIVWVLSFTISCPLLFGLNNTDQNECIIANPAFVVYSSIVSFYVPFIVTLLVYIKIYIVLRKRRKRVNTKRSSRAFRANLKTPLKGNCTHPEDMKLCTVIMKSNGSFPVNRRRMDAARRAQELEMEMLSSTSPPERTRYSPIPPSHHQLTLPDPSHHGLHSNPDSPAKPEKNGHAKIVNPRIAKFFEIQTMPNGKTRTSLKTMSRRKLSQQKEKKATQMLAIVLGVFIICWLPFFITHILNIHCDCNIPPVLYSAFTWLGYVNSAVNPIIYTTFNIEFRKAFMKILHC

Row | Compound | inhibition at 10 µM (5HT1A receptor) [%] | inhibition at 10 µM (5HT2A receptor) [%] | inhibition at 10 µM (D2 receptor) [%] | further results
1 | O=c1oc2cc(OCCCN3CCN(c4cccc(C(F)(F)F)c4)CC3)ccc2c2c1CCC2 [Compound 3, 7-{3-[4-(3-trifluoromethylphenyl)piperazin-1-yl]-propoxy}-2,3-dihydro-1H-cyclopenteno[c]benzopyran-4-one] | 104 | 62.2 | 17.2 | 
2 | COc1ccc(N2CCN(CCCCOc3ccc4c5c(c(=O)oc4c3)CCC5)CC2)cc1 [Compound 8, 7-{4-[4-(4-methoxyphenyl)piperazin-1-yl]-butoxy}-2,3-dihydro-1H-cyclopenteno[c]benzopyran-4-one] | 62.8 | 23.4 | 26.4 | 
3 | O=C1Cc2cc(CCN3CCN(c4nsc5ccccc45)CC3)c(Cl)cc2N1 [ziprasidone] |  |  |  | ED50 (mice of Kunming breed): 0.56 mg/kg; LD50 (in vivo [1]; mice, single intragastric administration, read-out: LD50): > 2000 mg/kg; ED50 (in vivo [2]): 30.4 mg/kg; ED50 (KM mice; po, mice): 0.37 mg/kg; Scoring (value), apomorphine induced clambering (KM mice; dosage 0.3 mg/kg): 4.40 ± 2.01; Scoring (value), apomorphine induced clambering (KM mice; dosage 1 mg/kg): 3.80 ± 1.40; Scoring (value), apomorphine induced clambering (KM mice; dosage 3 mg/kg): 0.70 ± 1.16; Scoring (value), apomorphine induced clambering (KM mice; dosage 10 mg/kg): 0.40 ± 0.84
4 | O=c1oc2cc(OCCCCN3CCC(c4noc5cc(F)ccc45)CC3)c(Cl)cc2c2c1CCC2 [Compound 16, 7-{4-[4-(3-(6-fluoro-benzisoxazole)-1-piperidyl)-butoxy]}-8-chloro-2,3-dihydro-1H-cyclopenteno[c]benzopyran-4-one] | 55.3 | 88.4 | 51.5 | 
5 | COc1ccccc1N1CCN(CCCCOc2ccc3c4c(c(=O)oc3c2C)CCCC4)CC1 [Compound 20, 3-{4-[4-(2-methoxyphenyl)piperazin-1-yl]-butoxy}-4-methyl-7,8,9,10-tetrahydrobenzo[c]benzopyran-6-one] | 100 | 90.7 | 66.4 | 
6 | O=c1oc2cc(OCCCCN3CCC(c4noc5cc(F)ccc45)CC3)ccc2c2c1CCC2 [Compound 10, 7-{4-[4-(3-(6-fluoro-benzisoxazole)-1-piperidyl)-butoxy]}-2,3-dihydro-1H-cyclopenteno[c]benzopyran-4-one] | 42.5 | 68.4 | 5.7 | 
7 | O=C1CCc2ccc(OCCCCN3CCN(c4cccc(Cl)c4Cl)CC3)cc2N1 [aripiprazole] |  |  |  | ED50 (mice of Kunming breed): 0.12 mg/kg; LD50 (in vivo [1]; KM): 93 mg/kg; ED50 (in vivo [2]): 2.4 mg/kg; ED50 (KM mice; po, mice): 0.66 mg/kg; Scoring (value), apomorphine induced clambering (KM mice; dosage 0.3 mg/kg): 4.50 ± 1.51; Scoring (value), apomorphine induced clambering (KM mice; dosage 1 mg/kg): 1.5 ± 1.08; Scoring (value), apomorphine induced clambering (KM mice; dosage 3 mg/kg): 2.30 ± 1.57; Scoring (value), apomorphine induced clambering (KM mice; dosage 10 mg/kg): 0.20 ± 0.42
8 | COc1ccccc1N1CCN(CCCOc2ccc3c4c(c(=O)oc3c2C)CCC4)CC1 [Compound 6, 7-{3-[4-(2-methoxyphenyl)piperazin-1-yl]-propoxy}-6-methyl-2,3-dihydro-1H-cyclopenteno[c]benzopyran-4-one] | 95.5 | 75.4 | 4.7 | 
9 | O=c1oc2cc(OCCCCN3CCC(c4noc5cc(F)ccc45)CC3)ccc2c2c1CCCC2 [Compound 18, 3-{4-[4-(3-(6-fluoro-benzisoxazole)-1-piperidyl)-butoxy]}-7,8,9,10-tetrahydrobenzo[c]benzopyran-6-one] | 46.6 | 114 | 80.6 | 
10 | COc1ccccc1N1CCN(CCCCOc2ccc3c4c(c(=O)oc3c2Cl)CCC4)CC1 [Compound 13, 7-{4-[4-(2-methoxyphenyl)piperazin-1-yl]-butoxy}-6-chloro-2,3-dihydro-1H-cyclopenteno[c]benzopyran-4-one] | 106 | 105 | 59.2 | 
11 | Cc1cc2c(s1)Nc1ccccc1N=C2N1CCN(C)CC1 [olanzapine] |  |  |  | ED50 (KM mice; po): 0.11 mg/kg; Scoring (value), apomorphine induced clambering (KM mice; dosage 0.1 mg/kg): 5.00 ± 1.25; Scoring (value), apomorphine induced clambering (KM mice; dosage 0.3 mg/kg): 2.10 ± 1.10; Scoring (value), apomorphine induced clambering (KM mice; dosage 1 mg/kg): 1.30 ± 1.25; Scoring (value), apomorphine induced clambering (KM mice; dosage 3 mg/kg): 0.30 ± 0.48
12 | COc1ccccc1N1CCN(CCCCOc2cc3oc(=O)c4c(c3cc2Cl)CCC4)CC1 [Compound 17, 7-{4-[4-(2-methoxyphenyl)piperazin-1-yl-butoxy]}-8-chloro-2,3-dihydro-1H-cyclopenteno[c]benzopyran-4-one] | 115 | 104 | 15.4 | 
13 | OCCOCCN1CCN(C2=Nc3ccccc3Sc3ccccc32)CC1 [quetiapine] |  |  |  | MK-801 induced high activity ED50 (mice of Kunming breed): 10.1 mg/kg; LD50 (in vivo [1]; KM): 800 mg/kg; ED50 (in vivo [2]): 800 mg/kg; Scoring (value), apomorphine induced clambering (KM mice; dosage 3 mg/kg): 4.00 ± 2.05; Scoring (value), apomorphine induced clambering (KM mice; dosage 10 mg/kg): 3.00 ± 1.63; Scoring (value), apomorphine induced clambering (KM mice; dosage 30 mg/kg): 4.00 ± 2.31; Scoring (value), apomorphine induced clambering (KM mice; dosage 100 mg/kg): 2.60 ± 2.55; Scoring (value), apomorphine induced clambering (KM mice; dosage 300 mg/kg): 0.50 ± 1.07; apomorphine induced clambering ED50 (KM mice; po, mice): 2.02 mg/kg
14 | COc1ccccc1N1CCN(CCCOc2ccc3c4c(c(=O)oc3c2)CCC4)CC1 [Compound 4, 7-{3-[4-(2-methoxyphenyl)piperazin-1-yl]-propoxy}-2,3-dihydro-1H-cyclopenteno[c]benzopyran-4-one] | 116 | 112 | 50.2 | 
15 | Cc1c(OCCCCN2CCN(c3nsc4ccccc34)CC2)ccc2c3c(c(=O)oc12)CCC3 [Compound 12, 7-{4-[4-(3-(1,2-benzisothiazole)-1-piperazinyl)-butoxy]}-6-methyl-2,3-dihydro-1H-cyclopenteno[c]benzopyran-4-one] | 104 | 107 | 61.2 | 
16 | COc1ccccc1N1CCN(CCCCOc2ccc3c4c(c(=O)oc3c2C)CCC4)CC1 [Compound 11, 7-{4-[4-(2-methoxyphenyl)piperazin-1-yl]-butoxy}-6-methyl-2,3-dihydro-1H-cyclopenteno[c]benzopyran-4-one] | 106 | 105 | 59.2 | 
17 | Cc1nc2n(c(=O)c1CCN1CCC(c3noc4cc(F)ccc34)CC1)CCCC2 [risperidone] |  |  |  | ED50 (KM mice; po): 0.015 mg/kg; effect on apomorphine induced clambering symptoms (in words) (KM mice; compared to the model group): effectively improve; Scoring (value), apomorphine induced clambering (KM mice; dosage 0.01 mg/kg): 5.20 ± 1.87; Scoring (value), apomorphine induced clambering (KM mice; dosage 0.03 mg/kg): 2.70 ± 1.77; Scoring (value), apomorphine induced clambering (KM mice; dosage 0.1 mg/kg): 1.80 ± 1.32; Scoring (value), apomorphine induced clambering (KM mice; dosage 0.3 mg/kg): 0.20 ± 0.63
18 | O=c1oc2cc(OCCCCN3CCN(c4ccc(F)cc4)CC3)ccc2c2c1CCC2 [Compound 9, 7-{4-[4-(4-fluorophenyl)piperazin-1-yl]-butoxy}-2,3-dihydro-1H-cyclopenteno[c]benzopyran-4-one] | 104 | 119 | 15.2 | 
19 | Cc1cccc(N2CCN(CCCOc3ccc4c5c(c(=O)oc4c3)CCC5)CC2)c1C [Compound 1, 7-{3-[4-(2,3-dimethylphenyl)piperazin-1-yl]-propoxy}-2,3-dihydro-1H-cyclopenteno[c]benzopyran-4-one] | 103 | 82.9 | 3.3 | 
20 | O=c1oc2cc(OCCCN3CCN(c4cccc(Cl)c4Cl)CC3)ccc2c2c1CCC2 [Compound 2, 7-{3-[4-(2,3-dichlorophenyl)piperazin-1-yl]-propoxy}-2,3-dihydro-1H-cyclopenteno[c]benzopyran-4-one] | 65.8 | 14.3 | 11.5 | 
